Source: patent US10913738B2 (BRISTOL-MYERS SQUIBB COMPANY, priority 2017, dated 2021)

Assays:
[1] = tested on: Female C57/Bl6 mice, mTNF + zVAD-fmk induced hypothermia; experiment: TNF-Induced Systemic Inflammatory Response Syndrome (SIRS), body temperature; assay type: in vivo; details: mouse, 1.0 mg/kg oral gavage 2 h before mTNF; 3 h after mTNF; relative to 6 mg/kg Nec-1s; read-out: % protection from body temp loss
Procedure: (§1) TNF-Induced Systemic Inflammatory Response Syndrome (SIRS)
(§2) RIPK1 inhibitors were evaluated for efficacy in vivo using a TNF-dependent model of systemic “shock”, also known as systemic inflammatory response syndrome (SIRS) (Duprez et al. 2011, Immunity 35(6):908-918). Intravenous injection of murine TNF induces a systemic inflammatory response characterized by a decrease in body temperature and an increase in circulating cytokines (IL-6, KC) in the serum. The addition of zVAD-fmk strongly sensitizes mice to TNF-induced shock through the inhibition of caspases (Cauwels et al., 2003). The combination of pretreatment with zVAD-fmk prior to injection of mTNF forms the basis of the RIPK1-dependent, TNF-induced, inflammatory response in this model.
(§3) Female C57/Bl6 mice (9 to 11 weeks old) were obtained from Jackson Labs (Bar Harbor, Me.). Mice were housed in BMS' animal facility with ad libitum access to food and water. Mice were and allowed to acclimate for at least 2 weeks and typically weighed at least 21 grams before being used in any studies. Group size was 6 mice per treatment. All experiments were conducted with the approval of BMS' Institutional Animal Care and Use Committee (IACUC)
(§4) Program compounds were dosed by oral gavage 2 h before IV challenge with 20 μg of murine TNF (#CRT192C, Cell Sciences, Canton, Mass.). zVAD-fmk (16.7 mg/kg) was given IV, 15 min before mTNF injection. The RIPK1 kinase inhibitor, necrostatin-1s (Nec-1s) was used as a positive control and was dosed at 6 mg/kg, IV, 30 minutes before mTNF challenge. mTNF was diluted in endotoxin-free PBS and 20 μg/mouse was injected in a volume of 0.1 ml into the retro-orbital sinus. All IV injections were done via the retro-orbital sinus and injection sites were alternated (left and right sides).
Three (3) hours after mTNF injection, mice were assessed for hypothermia and mortality. Rectal body temperature was recorded with an electric thermometer (Acorn Series Model JKT with a Ret-3 probe, Oakton Instruments Vernon Hills Ill. 60061).
(§5) Using these assays, the percent protection of body temperature and percent reduction in IL6 cytokine of the following compounds were determined. See Table B. % Protection is relative to a 6 mg/kg dose of Nec-1s (5-((7-Cl-1H-indol-3-yl)methyl)-3-methylimidazolidine-2,4-dione)).

[2] = tested on: MLKL phosphorylation in HT29-L23 human colorectal adenocarcinoma cells; experiment: MLKL Phosphorylation High-Content Assay; assay type: cell-based; details: Homo sapiens, x marks IC50 class 20-200 nM, read-out: pMLKL cell activity 20-200 nM
Procedure, shortened: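 IC50 and Ymax obtained by 4-parameter logistic fitting of MLKL phosphorylation, measured as mean circ-ring average intensity ratio from high-content images. Staining used an anti-phospho-S358 MLKL antibody overnight at 4° C., following six-hour cell incubation at 37° C.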

[3] = tested on: IL-6; experiment: TNF-Induced SIRS, serum cytokines (IL-6, KC) by ELISA; assay type: in vivo; details: mouse, 1.0 mg/kg oral gavage 2 h before mTNF, relative to 6 mg/kg Nec-1s, read-out: % protection from IL6 increase
Procedure: as §1, §2, §3, §4
(§6) Blood samples for PK determination were collected into heparinized microtainer blood tubes (Part #365965, Becton Dickinson, Franklin Lakes N.J.) and mixed well. Dried blood spots (DBS) were prepared by pipetting 10 μl of whole blood, in duplicate, onto bioanalysis cards (#GR2261004, Perkin Elmer, Greenville, S.C.). A serum sample was obtained by collecting blood into a separator tube (#450472, Greiner Bio-One, Austria) and centrifuged (10 min at 10,000 RPM) to separate the serum. All blood samples were obtained from the retro-orbital sinus while under isoflurane anesthesia.
Serum cytokines were evaluated by ELISA assay. IL-6 was measured using OPTeia Kit (Becton Dickinson, Franklin Lakes N.J.) while KC was measured using an R&D Duoset kit (R&D Systems Inc. Minneapolis, Minn.)
as §5

[4] = Exposure in TNF-induced SIRS study (blood samples for PK determination); assay type: in vivo; details: mouse, 1.0 mg/kg oral gavage
Procedure: as §4, §6

[5] = biological target: T1, His-GST-TVMV-hRIPK1(1-324) (Homo sapiens, UniProt Q13546); experiment: RIPK1 HTRF Binding Assay; details: x marks IC50 class <20 nM; read-out: RIPK1 HTRF binding <20 nM
T1 construct: The coding region of human RIPK1(1-324) flanked by NdeI site at 5′ end; made in house; host or cells: Spodoptera frugiperda (Sf9) insect cells, baculovirus
T1 sequence (Q13546 1-324): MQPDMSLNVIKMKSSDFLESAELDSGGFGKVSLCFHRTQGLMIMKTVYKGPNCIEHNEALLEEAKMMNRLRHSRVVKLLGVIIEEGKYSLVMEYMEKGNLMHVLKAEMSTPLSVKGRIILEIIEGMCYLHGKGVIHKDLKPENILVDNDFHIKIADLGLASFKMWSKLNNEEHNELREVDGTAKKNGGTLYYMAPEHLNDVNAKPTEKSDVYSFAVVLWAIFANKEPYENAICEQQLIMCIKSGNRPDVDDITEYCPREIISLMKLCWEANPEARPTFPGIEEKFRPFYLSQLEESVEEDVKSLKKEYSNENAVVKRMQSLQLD

## COc1ncc(-c2ccn3nc(N)nc3c2)cc1C(=O)NCc1cc(OC(F)(F)F)ccc1F [Example 160, 5-{2-amino-[1,2,4]triazolo[1,5-a]pyridin-7-yl}-N-{[2-fluoro-5-(trifluoromethoxy)phenyl]methyl}-2-methoxypyridin-3-carboxamide]
[1]
  inhibition in vivo at 1 mg/kg: 107%
[2]
  IC50: 20 to 200 nM
[3]
  inhibition in vivo at 1 mg/kg: 60%
[4]
  Exposure: 693 nM
[5]
  IC50: < 20 nM
